Experimental data published in PMC4254195 (European journal of medicinal chemistry, 2014).

Biological target: T1, PTP1B (Homo sapiens, UniProt P18031)
T1 sequence (P18031 1-435): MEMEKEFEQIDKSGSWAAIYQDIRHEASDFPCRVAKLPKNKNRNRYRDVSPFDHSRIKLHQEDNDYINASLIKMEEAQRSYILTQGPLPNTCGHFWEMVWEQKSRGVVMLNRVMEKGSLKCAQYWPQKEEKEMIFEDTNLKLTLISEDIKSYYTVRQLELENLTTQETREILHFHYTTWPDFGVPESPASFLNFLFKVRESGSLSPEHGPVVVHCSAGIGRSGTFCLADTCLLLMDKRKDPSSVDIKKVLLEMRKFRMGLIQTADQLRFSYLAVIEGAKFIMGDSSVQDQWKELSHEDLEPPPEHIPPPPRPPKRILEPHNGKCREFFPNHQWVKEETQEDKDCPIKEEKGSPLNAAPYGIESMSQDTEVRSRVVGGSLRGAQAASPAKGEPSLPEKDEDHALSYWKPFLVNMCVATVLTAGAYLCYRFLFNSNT
Experiment: competition with BiPhYn-1 labelling of PTP1B in cells
Assay type: cell-based

C=CS(=O)(=O)c1ccccc1 [PVSF, phenyl vinyl sulfone]
competition with BiPhYn-1 labelling of PTP1B in cells: exhibited loss of detection of oxidized PTP1B with BiPhYn-1 in the presence of increasing concentrations of PVSF
